This is an account of results in article PMC12063173, “Metabolic Profiling of a Mediterranean-Inspired (Poly)phenol-Rich Mixture in the Brain: Perfusion Effect and In Vitro Blood–Brain Barrier Transport Validation” (Journal of Agricultural and Food Chemistry, 2025).

As a reminder, the Cmax is the highest concentration seen after dosing. Usually Tmax stands for the time at which the peak concentration occurs. By AUC(0-t) is commonly meant exposure summed from dosing to a finite time, without extrapolation to infinity.

“Also recorded” adds a separate entry of the source. Where two headings read alike, the source gives them in different places.

A short description of data set [1]: Perfused brain (PB) kinetics of phenolic metabolites after oral capsule. In kind it is in vivo, Sprague–Dawley rats. Also noted: AUC0-t PB: concentration or dose not given beside the values. Conditions: perfused brain; for half-life: read-out: T1/2 PB (converted). An excerpt:
(§1) Statistical analyses were applied depending on the experimental context.

The test system of data set [2] is human brain microvascular endothelial cells (HBMECs). In words: In vitro blood–brain barrier transport (Transwell). It is filed as in vitro ADME. The settings on record: 2 h; for transport percentage, individual compounds: HBMEC monolayer, lower compartment / total concentration; for transport percentage, individual compounds / transport efficiency in both mixtures and as individual molecules: 2.5 μM; for transport efficiency in both mixtures and as individual molecules / transport efficiency in MIXperc compared with MIXeq: HBMEC; for transport efficiency in MIXperc compared with MIXeq: mixtures at 2.5 μM final. The protocol:
The BBB transport model was established using human brain microvascular endothelial cells (HBMECs), following a methodology previously described.[49] Cells were maintained at 37 °C in a humidified environment with 5% CO2. HBMECs were seeded on 12-well Transwell inserts (12 mm, 0.4 μm pore polyester membrane; Corning, Madrid, Spain) and cultured for 6 days to form confluent monolayers suitable for transport studies. Transport assays were carried out in Hanks’ Balanced Salt Solution (HBSS) supplemented with 0.1% fetal bovine serum (FBS, v/v). The cells were exposed on the apical side to individual phenolic metabolites detected in the brain from the animal study, a representative mixture containing equal concentrations of these metabolites, or a physiological mixture reproducing their relative percentages as observed in the brain. All treatments were applied at a final concentration of 2.5 μM for 2 h (Supporting Information, Table S3). The integrity of the cell monolayers was confirmed by measuring transendothelial electrical resistance (TEER) at the start of the experiment (0 h) and after the last time point (2 h) using an EVOM2 Epithelial Volt Ohm Meter (World Precision Instruments, Inc., USA).
Samples from the apical and basolateral compartments were stored at −80 °C for further analysis. Transport of the compounds was evaluated using UPLC-qTOF as described elsewhere,[38] and transendothelial permeability expressed as a percentage of the ratio between the concentration in the basolateral compartment relative to the total concentration in both compartments.
Finally, one-way ANOVA with Tukey’s multiple comparisons test was exclusively applied to in vitro BBB transport experiments. The three tested conditions for each compound (individual compound, a mixture containing equal concentrations of these compounds, or a physiological mixture reproducing their relative percentages as observed in the brain were evaluated. Plots were performed using GraphPad 9.0 (GraphPad Software, Boston, Massachusetts, USA). Statistical significance was set at P < 0.05.
Figure 3 Transport efficiency of phenolic metabolites across the BBB. Human brain microvascular endothelial cells (HBMEC) were seeded onto semipermeable membranes. […] Detailed composition of both mixtures is given in the Supporting Information, Table S3. Media from the upper and lower compartments were collected, and endothelial transport was evaluated by UPLC-qTOF-MS. The transport percentage (%) was determined by the concentration ratio in the lower compartment to the total concentration (upper and lower compartments). All values are presented as mean ± SD from three independent experiments.

The nature of data set [3]: Nonperfused brain (NPB) kinetics of phenolic metabolites after oral capsule. In kind it is in vivo, Sprague–Dawley rats. Set-up: AUC0-t NPB: concentration or dose not given beside the values. The settings on record: nonperfused brain, oral capsule, 0-24 h, n = 3 per time point; for Tmax / MRT last / half-life: male, Sprague-Dawley, rat, 22 mg extract blend per capsule, one capsule per animal; for MRT last: read-out: MRT0-t NPB; for half-life: read-out: T1/2 NPB (converted).
Description: as §1

The nature of data set [4]: Plasma pharmacokinetics of phenolic metabolites after oral capsule of (poly)phenol-rich Mediterranean extract mixture. The settings on record: for AUC0-t plasma / MRT0-t plasma / T1/2 plasma / Tmax plasma: oral capsule, 0-24 h, n = 6 per time point.
Description: Adult male Sprague–Dawley rats weighing 250–300 g were purchased from the Animal Experimentation Service of the University of Murcia (Murcia, Spain). […] Animals were maintained in a temperature-controlled environment with a 12 h light-dark cycle. […] Based on the experimental design shown in Figure 1, one capsule was administered by gavage to each fasting animal. A total of 40 animals were used in the study. Thirty animals received a capsule containing a mixture of different Mediterranean food extracts, while ten animals received a capsule with microcrystalline cellulose and served as the control group. At each time point (1, 3, 6, 8, and 24 h postadministration), six animals from the extract group were sacrificed, three with transcardial perfusion using saline (PB) and three without perfusion (NPB), to assess the distribution of extract-derived metabolites in plasma and brain. To minimize animal use in accordance with the 3Rs principle, two control animals were sacrificed at each time point (one PB and one NPB). […] All animals were fasted overnight prior to gavage and euthanized with carbon dioxide.
Blood samples collected by cardiac puncture in sodium heparin tubes at each time point after sacrifice were immediately centrifuged at 14,000 × g for 15 min at 4 °C, and the plasma was stored at −80 °C until their analysis. Plasma samples were extracted with ACN:formic acid (98:2, v/v), centrifuged and evaporated in a speed vacuum concentrator (Savant SPD14 0DDA). The evaporated samples were resuspended in 100 μL MeOH and filtered through 0.22 μm regenerated cellulose filters (Minisart Sartorius, Madrid, Spain).
We performed a targeted metabolomic analysis using an ultrahigh-performance liquid chromatographic system (UPLC) coupled to a quadrupole-time-of-flight (QTOF) mass spectrometer. The phenolic compounds were separated using an Agilent Poroshell 120 column (100 mm × 3 mm, 2.7 μm) and a 5 μL injection volume. The mobile phases used were 0.1% formic acid in water (A) and 0.1% formic acid in ACN (B), and the gradient was: 0–3 min, 5–15% B; 3–11 min, 15–30% B; 11–14 min, 30–50% B, 14–16 min, 50–90% B. Finally, the B content was decreased to the initial conditions (5%) in 1 min, and the column re-equilibrated for 4 min. The flow rate was set constant at 0.4 mL/min. The spectra were acquired in the m/z range from 100 to 1100, in negative polarity mode and an acquisition rate of 1.5 spectra per second.
Data set [5] is described as follows: Targeted metabolomics (UPLC-ESI-QTOF) identification of metabolites in plasma, PB and NPB. The settings on record: P plasma, PB perfused brain, NPB nonperfused brain, 1-24 h after oral capsule.
Description: Adult male Sprague–Dawley rats weighing 250–300 g were purchased from the Animal Experimentation Service of the University of Murcia (Murcia, Spain). […] Based on the experimental design shown in Figure 1, one capsule was administered by gavage to each fasting animal. A total of 40 animals were used in the study. Thirty animals received a capsule containing a mixture of different Mediterranean food extracts, while ten animals received a capsule with microcrystalline cellulose and served as the control group. […] To minimize animal use in accordance with the 3Rs principle, two control animals were sacrificed at each time point (one PB and one NPB). These controls served to identify potential endogenous compounds or background signals not related to the extract administration. All animals were fasted overnight prior to gavage and euthanized with carbon dioxide.
Plasma samples were extracted with ACN:formic acid (98:2, v/v), centrifuged and evaporated in a speed vacuum concentrator (Savant SPD14 0DDA). The evaporated samples were resuspended in 100 μL MeOH and filtered through 0.22 μm regenerated cellulose filters (Minisart Sartorius, Madrid, Spain). Next, half of the animals at each time point were perfused with ice-cold phosphate-buffered saline, and the blood-free brain was dissected out immediately and stored at – 80 °C until analysis, as previously reported.[37],[48]
Approximately 400 mg of brain tissue (perfused or nonperfused) was weighed and extensively washed with cold PBS to avoid external blood contamination. After weighting, the samples were placed in 2 mL screw cap tubes. […] The evaporated samples were resuspended in 100 μL MeOH and filtered through 0.22 μm regenerated cellulose filters.
We performed a targeted metabolomic analysis using an ultrahigh-performance liquid chromatographic system (UPLC) coupled to a quadrupole-time-of-flight (QTOF) mass spectrometer. The phenolic compounds were separated using an Agilent Poroshell 120 column (100 mm × 3 mm, 2.7 μm) and a 5 μL injection volume. […] The flow rate was set constant at 0.4 mL/min. The spectra were acquired in the m/z range from 100 to 1100, in negative polarity mode and an acquisition rate of 1.5 spectra per second. Quantitative data were processed using the Mass HunterQualitative Analysis software (version B.08.00, Agilent). A target screening strategy was applied for the qualitative analysis of possible metabolites derived from the consumption of the Mediterranean blend. […] These compounds encompass derived metabolites conjugated (glucuronides, sulfates, and sulfoglucuronides, among others). The exact mass of the proposed compound was extracted using an extraction window of 0.01 m/z. Metabolite quantification was performed by integrating the peak areas of their extracted ion chromatograms (EICs). Compounds with available standards were quantified using calibration curves derived from the respective standards, while other metabolites were semiquantified based on their peak area values.
[6] abbreviates: oral capsule, 0-24 h, n = 3 per time point.
Setting [7] is: read-out: Cmax plasma, oral capsule, 0-24 h, n = 6 per time point.
Where [8] appears, read: male, Sprague-Dawley, rat, 22 mg extract blend per capsule, one capsule per animal, oral capsule, 0-24 h, n = 3 per time point.
The mark [9] stands for this setting: male, Sprague-Dawley, rat, po, 22 mg extract blend per capsule, one capsule per animal.

As for `O=C(O)C=Cc1ccc(OS(=O)(=O)O)cc1` [p-coumaric acid 4-O-sulfate], in data set [1], the “PB concentration relative to ferulic acid 4-O-sulfate” value is recorded as 14 fold. In addition, in data set [1] (setting [6]), the “Cmax PB” value is on record as 2.8 ± 2.4 pmol/g tissue, the “MRT0-t PB” value is given as 30 ± 20 h, the “T1/2 PB” value is on record as 23.85 h and the “Tmax PB” value amounted to 19 ± 12 h. Further, in data set [2], the “transport percentage, individual compounds” value (shortened to “transport percentage”) is recorded as “exceeding 20%”; the “transport efficiency in both mixtures and as individual molecules” value is listed as “relatively consistent transport efficiencies”. Further, in data set [3], the “AUC0-t NPB” value was found to be 1.6 ± 0.6 pmol·h/g, the “Cmax NPB” value was 0.2 ± 0.1 pmol/g tissue and the “Tmax NPB” value was 3.0 ± 0.0 h. In data set [4], the AUC0-t plasma came out at 293 ± 154 nM·h, the MRT0-t plasma came out at 45 ± 37 h, the T1/2 plasma came out at 33 ± 28 h and the Tmax plasma is recorded as 3.6 ± 2.6 h. In data set [4] (setting [7]), the Cmax came out at 0.044 ± 0.047 µM. Besides, in data set [5], the occurrence entry is recorded as “PB, NPB, P”.

In the case of `O=C(O)CCc1ccc(O)c(O)c1` [dihydrocaffeic acid], the Tmax in data set [1] (setting [8]) came to 4.5 ± 5 h. In data set [1] (setting [6]), the “AUC0-t PB” value was determined as 11 ± 2.8 pmol·h/g and the “Cmax PB” value is 0.7 ± 0.3 pmol/g tissue. In addition, in data set [2], the “transport percentage” value is listed as under 5%. Besides, in data set [3], the Tmax was determined as 24 h, the “AUC0-t NPB” value stood at 18 ± 1 pmol·h/g and the “Cmax NPB” value came to 0.9 ± 0.1 pmol/g tissue. Also, in data set [4] (setting [9]), the AUC(0-t) was determined as 127 ± 31 nM·h, the Cmax is 0.016 ± 0.0086 µM, the MRT last is 86 ± 138 h and the Tmax turned out to be 2.6 ± 0.9 h. Moreover, the half-life in data set [4] (setting [9]) was 61 ± 94 h. Moreover, the occurrence entry in data set [5] was “PB, NPB, P”. In addition, the occurrence entry in data set [5] (listed as 3-(3,4-dihydroxyphenyl)propionic acid) is “consistently detected in plasma and brain at all time points”.

As for `O=C(O)CCCCc1cccc(O)c1` [5-(3-hydroxyphenyl)-valeric acid], in data set [1] (setting [8]), the Tmax is 2 ± 1.2 h and the half-life is 39 ± 19 h. Also, in data set [1] (setting [6]), the “AUC0-t PB” value was found to be 30 ± 6.5 pmol·h/g and the “Cmax PB” value was found to be 2.4 ± 0.8 pmol/g tissue. Moreover, the “transport efficiency in MIXperc compared with MIXeq” value in data set [2] is “lower transport percentages”. In data set [3], the Tmax was found to be 2.3 ± 1.2 h, the MRT last is 102 ± 62 h, the half-life was 70 ± 46 h and the “AUC0-t NPB” value is 33 ± 4.8 pmol·h/g. The “Cmax NPB” value in data set [3] worked out at 3.4 ± 0.7 pmol/g tissue. For the same compound, the “concentration in plasma (approximate)” value in data set [4] is recorded as “approximately 5 nM”. Further, in data set [4] (setting [9]), the AUC(0-t) is 55 ± 11 nM·h, the Cmax came out at 0.0048 ± 0.0019 µM, the MRT last came out at 43 ± 45 h and the Tmax is 7.4 ± 9.5 h. Further, the half-life in data set [4] (setting [9]) is 29 ± 32 h. Besides, in data set [5], the occurrence entry is listed as “PB, NPB, P”. Also, in data set [5] (listed as 5-(3-hydroxyphenyl)valeric acid), the occurrence result was “consistently detected in plasma and brain at all time points”.

With `O=C(O)C=Cc1ccc(O)c(OS(=O)(=O)O)c1` [caffeic acid 3-O-sulfate], in data set [1] (setting [6]), the “AUC0-t PB” value is 4.7 ± 1.8 pmol·h/g, the “Cmax PB” value is recorded as 1.0 ± 0.7 pmol/g tissue, the “MRT0-t PB” value is recorded as 8.7 ± 7.3 h and the “T1/2 PB” value is 5.2 ± 5.7 h. Further, the “Tmax PB” value in data set [1] (setting [6]) came out at 3.0 ± 0.1 h. Further, in data set [2], the “transport percentage” value is recorded as “exceeding 20%”; the “transport efficiency in both mixtures and as individual molecules” value is “relatively consistent transport efficiencies”. Moreover, in data set [3], the “AUC0-t NPB” value is 3.32 pmol·h/g, the “Cmax NPB” value is on record as 0.24 pmol/g tissue and the “Tmax NPB” value is reported as 3.00 h. Further, in data set [4], the AUC0-t plasma was 282 ± 332 nM·h, the MRT0-t plasma is listed as 13 ± 8.8 h, the T1/2 plasma turned out to be 8.3 ± 4.9 h and the Tmax plasma amounted to 8.6 ± 8.9 h. For the same compound, the Cmax in data set [4] (setting [7]) stood at 0.022 ± 0.021 µM. For the same compound, the occurrence result in data set [5] is reported as “PB, NPB, P”.

As to `O=S(=O)(O)Oc1cc(O)cc(C=Cc2ccc(O)cc2)c1` [resveratrol 3-O-sulfate], the Tmax in data set [1] (setting [8]) came out at 5 ± 1.7 h. In addition, in data set [1] (setting [6]), the “AUC0-t PB” value is 0.1 ± 0.1 pmol·h/g and the “Cmax PB” value was 0.1 ± 0.01 pmol/g tissue. Besides, in data set [2], the “transport percentage” value was under 5% and the “transport efficiency in MIXperc compared with MIXeq” value was “lower transport percentages”. For the same compound, in data set [3], the Tmax was 15 ± 13 h, the “AUC0-t NPB” value stood at 2.2 ± 0.1 pmol·h/g and the “Cmax NPB” value was 0.2 ± 0.04 pmol/g tissue. Moreover, in data set [4] (setting [9]), the AUC(0-t) is 8.4 ± 10 nM·h, the maximum concentration (Cmax) came out at 0.0022 ± 0.0026 µM, the MRT last was found to be 8.5 ± 5.5 h and the Tmax amounted to 5.2 ± 2.2 h. In addition, in data set [4] (setting [9]), the half-life was 3.9 ± 4.3 h. In data set [5], the occurrence entry was “detected in plasma, PB, and NPB; also recorded: PB, NPB, P”.

Take `O=C(O)CCc1cccc(O)c1` [3-(3-hydroxyphenyl) propionic acid]: in data set [1] (setting [8]), the time of peak concentration (Tmax) is 3.3 ± 2.5 h and the half-life was 11 ± 6.9 h. In addition, the MRT last in data set [1] (male, Sprague-Dawley, rat, 22 mg extract blend per capsule, one capsule per animal, oral capsule, 0-24 h, n = 3 per time point, read-out: MRT0-t PB) was 11 ± 6.9 h. Also, in data set [1] (setting [6]), the “AUC0-t PB” value stood at 11 ± 6.8 pmol·h/g and the “Cmax PB” value is 1.0 ± 0.5 pmol/g tissue. For the same compound, in data set [2], the “transport percentage” value is given as “exceeding 20%”; the “transport efficiency in both mixtures and as individual molecules” value is given as “relatively consistent transport efficiencies”. In data set [3], the Tmax turned out to be 7.5 ± 3.1 h, the MRT last amounted to 11 ± 4.1 h, the half-life was 20 ± 15 h and the “AUC0-t NPB” value stood at 13 ± 11 pmol·h/g. Further, the “Cmax NPB” value in data set [3] came to 4.0 ± 3.6 pmol/g tissue. For the same compound, in data set [4] (setting [9]), the AUC(0-t) turned out to be 481 ± 353 nM·h, the Cmax is 0.039 ± 0.02 µM, the MRT last was 9.77 h and the Tmax is 13 ± 11 h. The half-life in data set [4] (setting [9]) was 6.9 h. Moreover, the occurrence result in data set [5] was “PB, NPB, P”. Also, the occurrence result in data set [5] (listed as 3-(3-hydroxyphenyl)propionic acid) was “consistently detected in plasma and brain at all time points”.

`O=C(O)[C@H]1O[C@@H](Oc2cc(O)cc(CCc3ccc(O)cc3)c2)[C@H](O)[C@@H](O)[C@@H]1O` [dihydroresveratrol 3-O-glucuronide]: in data set [1] (setting [6]), the “AUC0-t PB” value came out at 1.3 ± 0.7 pmol·h/g, the “Cmax PB” value came to 0.4 ± 0.1 pmol/g tissue, the “MRT0-t PB” value was 23 ± 26 h and the “T1/2 PB” value is given as 15 ± 18 h. In addition, in data set [1] (setting [6]), the “Tmax PB” value is 3.3 ± 2.1 h. The “transport efficiency in MIXperc compared with MIXeq” value in data set [2] is recorded as “significantly higher transport efficiencies”. For the same compound, in data set [3], the “AUC0-t NPB” value was found to be 5.3 ± 2.8 pmol·h/g, the “Cmax NPB” value came out at 0.5 ± 0.1 pmol/g tissue, the “MRT0-t NPB” value amounted to 44 ± 1 h and the “T1/2 NPB” value stood at 27 ± 1 h. In addition, in data set [3], the “Tmax NPB” value is on record as 6.7 ± 1.2 h. Further, in data set [4], the AUC0-t plasma was found to be 993 ± 558 nM·h, the MRT0-t plasma turned out to be 14 ± 5.8 h, the T1/2 plasma was found to be 8.1 ± 3.2 h and the Tmax plasma was 6.2 ± 2.1 h. Also, the Cmax in data set [4] (setting [7]) came to 0.093 ± 0.045 µM. In data set [5], the occurrence entry is given as “PB, NPB, P”.
